The subject of experiment [1] is ear cells derived from a newborn cloned calf (C188/Firstdown-FB000). Nature of the experiment: Nuclear transfer with lovastatin-treated bovine ear cells: in vitro embryo development. Type of experiment: cell-based. Conditions: for Emb. Devel. (% Blastocyst): NT embryos from ear cells treated with lovastatin for 24 hours, day 7 of culture. The method, then:
Mycoplasma free totipotent cells used in the NT procedure, were prepared by cutting out a group of cells from the culture dish using a glass needle. The cells were then incubated in a TL HEPES solution containing from 1 to 3 mg/ml pronase E at approximately 32° C. for 15-60 minutes, the amount of time which was needed in this example to disaggregate the cells. Once the cells were in a single cell suspension they were used for NT within a 2-3 hour period.
Oocytes aspirated from ovaries were matured overnight (16 hours) in maturation medium. Medium 199 (Biowhittaker, Cat #12-119F) supplemented with luteinizing hormone 10 IU/ml (LH; Sigma, Cat #L9773), […] (Sigma, Cat #E8875) and 10% FCS or estrus cow serum, was used. Within 16-17 hours of maturation, the cumulus layer expanded and the first polar bodies were extruded.
In the first NT procedure, young oocytes (16-17 hours in maturation medium) were stripped of their cumulus cell layers and nuclear material stained with Hoechst 33342 5 mg/ml (Sigma, Cat #2261) in TL HEPES solution supplemented with cytochalasin B (7 μg/ml, Sigma, Cat #C6762) for 15 min. Oocytes were then enucleated in TL HEPES solution under mineral oil. A single cell of optimal size (12 to 15 μm) was then selected from a cell suspension and injected into the perivitelline space of the enucleated oocyte. The cell and oocyte membranes were then induced to fuse by electrofusion in a 500 μm chamber by application of an electrical pulse of 90V for 15 μs.
Cybrid activation was induced by a 4 min exposure to 5 μM calcium ionophore A23187 (Sigma Cat. #C-7522) or ionomycin Ca-salt in HECM (hamster embryo culture medium) containing 1 mg/ml BSA followed by a 1:1000 dilution in HECM containing 30 mg/ml BSA for 5 min. For HECM medium, See, e.g., Seshagiri & Barister, 1989, “Phosphate is required for inhibition of glucose of development of hamster eight-cell embryos in vitro,” Biol. Reprod. 40: 599-606. […]

Experiment [2] deals with ear cells (SA01-FB) used as nuclear donors. Briefly: Nuclear transfer with lovastatin-treated ovine ear cells: in vitro embryo development. As to conditions: NT embryos from SA01-FB ear cells treated with 5 μM lovastatin for 24 hours; per day of NT. The class given is cell-based, sheep. On the procedure: Oocytes were aspirated from sheep ovaries obtained from an abattoir and recovered in TL HEPES medium (Biowhittaker 04-616F) containing 10 mg/ml Heparin (Sigma H-3393) and 4 mg/ml BSA (Sigma A-6003). Aspirations were performed using 20 GA needles with the vacuum set at 60 mm Hg.
Two maturation media were used to produce nuclear transfer pregnancies. Maturation Medium 1: TC199 (Gibco 11150-059), 2 mM Glutamine (Sigma G-5763), 10% FBS (Hyclone A-111D), 5 mg/ml ovine FSH (Sigma L-8174), 5 mg/ml ovine LH (Sigma L-5269), 1 mg/ml Estradiol (Sigma E-2257), 0.3 mM Na-pyruvate (Sigma P-4562), and […] (Sigma M-9768). Maturation Medium 3: TC199 (Gibco 11150-059), 10% FBS (Hyclone A-111D), 10 mg/ml ovine FSH (Sigma L-8174), 10 mg/ml ovine LH (Sigma L-5269), 1 mg/ml Estradiol (Sigma E-2257) and […] (Sigma M-9768).
Typically, oocytes were stripped of cumulus cells after 17 hours in maturation medium by vortexing in 0.5 ml of TL-HEPES. The chromatin was stained with Hoechst 33342 (5 mg/ml, Sigma) in TL-HEPES solution for 15 minutes. Oocytes were then enucleated in TL-HEPES with or without calcium.
All nuclear transfers were performed in TL HEPES containing calcium regardless of what enucleation medium was used. […]

For the next experiment, the system named is recipients. Nature of the experiment: Transfer of NT blastocysts from lovastatin-treated bovine cells into recipients: pregnancy outcome. Type of experiment: in vivo. The method, then:
After blastomere-oocyte fusion, the cybrids from second generation NT were cultured in CR2 media supplemented with BSA (3 mg/ml) under humidified air with 5% CO2 at 39° C. On the third day of culture, developing embryos were evaluated and cultured further until day seven in CR2 media containing 10% FCS. Morphologically good to fair quality embryos were non-surgically transferred into recipient females.
Similar results were obtained using statin-treated bovine cells in nuclear transfer procedures. […] One or two blastocysts were non-surgically transferred into 5 recipients of which two became pregnant (Table 3).

A further experiment concerns estrus synchronized ewes. Briefly: Transfer of NT blastocysts from lovastatin-treated ovine cells into recipient ewes: pregnancy outcome.

Structures are written as SMILES. Entries after “also recorded” stand apart in the source; their conditions may differ.

With `CC[C@H](C)C(=O)O[C@H]1C[C@@H](C)C=C2C=C[C@H](C)[C@H](CC[C@@H]3C[C@@H](O)CC(=O)O3)[C@H]21` [lovastatin], the “Emb. Devel. (% Blastocyst)” value in experiment [1] and in experiment [1] (listed as LOVASTATIN) was 19% in each case. Besides, in experiment [1] (lovastatin treated cells used in NT on two different days), the “Number of blastocysts produced by day 7 of culture” value was 6. Besides, in experiment [2], the “# of Bl. (blastocysts, day 7)” value was “one and four”. Moreover, the “Number of recipients that became pregnant” value in the experiment with recipients (of 5 recipients given one or two blastocysts) is “two”. Further, the Outcome of pregnancies result in the experiment on recipients (two pregnancies from lovastatin treated bovine cells) was “One pregnancy aborted by day 32; also recorded: produced a live calf”. For the same compound, in the experiment on estrus synchronized ewes (NT blastocysts from lovastatin treated SA01-FB cells transferred into ewe, listed as L0), the “Status (of recipient after embryo transfer)” value was “open and Lambed”. The Farrowed/Aborted result with estrus synchronized ewes (Pregnancy Two, SA01-FB00 lovastatin treated, 4 Day 7 blastocysts transferred, recipient #56) is listed as “farrowed”.

The record behind these values is patent publication US20040055025A1, “Immune response replication in cloned animals” (Infigen, Inc., priority 2002, published 2004).
